Source: paper PMC10692473 (Acta Pharmaceutica Sinica. B, 2023)
≈ marks a conversion by molar mass, not a printed value.

Tests used:
S. aureus (ATCC29213) = assay: Antibacterial assay; settings: Staphylococcus aureus, ATCC29213, read-out: MIC S. aureus (ATCC29213)
S. aureus gyrase = S. aureus gyrase (Staphylococcus aureus, UniProt P0A0K8); assay: Gyrase inhibitory assay; format: biochemical
E. coli (ATCC25922) = assay: Antibacterial assay; settings: Escherichia coli, ATCC25922, read-out: MIC E. coli (ATCC25922)
E. coli gyrase = E. coli gyrase (Escherichia coli, UniProt P0AES6); assay: Gyrase inhibitory assay; format: biochemical
[1] = system: methicillin-resistant S. aureus (ATCC43300); assay: Mouse model of sepsis induced by MRSA; format: in vivo, ICR mice; settings: 10 mg/kg ig, MRSA ATCC43300, observed 7 days
S. aureus Topo IV = S. aureus Topo IV (Staphylococcus aureus, UniProt P0C1S7); assay: Topo IV inhibitory assay; format: biochemical

| SMILES | MIC (S. aureus (ATCC29213)) [µg/mL] | IC50 (S. aureus gyrase) [µM] | MIC (E. coli (ATCC25922)) [µg/mL] | IC50 (E. coli gyrase) [µM] | IC50 (S. aureus Topo IV) [µM] | protective effect / survival in mouse model of sepsis [1] |
| --- | --- | --- | --- | --- | --- | --- |
| COC(=O)c1cnc(N2CC[C@@H](NC(=O)c3[nH]c(C)c(Cl)c3Cl)[C@@H](OC)C2)s1 [Compound 9, Methyl 2-((3S,4R)-4-(3,4-dichloro-5-methyl-1H-pyrrole-2-carboxamido)-3-methoxypiperidin-1-yl)thiazole-5-carboxylate] | 0.125 (≈ 0.279 µM) | 1.45 ± 0.111 | > 128 | > 10 |  |  |
| CCOC(=O)c1nnc(N2CC[C@@H](NC(=O)c3[nH]c(C)c(Cl)c3Cl)[C@@H](OC)C2)s1 [Compound 10, Ethyl 5-((3S,4R)-4-(3,4-dichloro-5-methyl-1H-pyrrole-2-carboxamido)-3-methoxy-piperidin-1-yl)-1,3,4-thiadiazole-2-carboxylate] | 0.125 (≈ 0.27 µM) | 0.137 ± 0.013 | 16 (≈ 34.6 µM) | 6.87 ± 1.22 |  |  |
| COC(=O)c1ccc(N2CC[C@@H](NC(=O)c3[nH]c(C)c(Cl)c3Cl)[C@@H](OC)C2)nc1 [Compound 11, Methyl 6-((3S,4R)-4-(3,4-dichloro-5-methyl-1H-pyrrole-2-carboxamido)-3-methoxy-piperidin-1-yl)nicotinate] | 1 (≈ 2.27 µM) | 3.35 ± 0.154 | > 128 | > 10 |  |  |
| CCOC(=O)c1cnc(N2CC[C@@H](NC(=O)c3[nH]c(C)c(Cl)c3Cl)[C@@H](OC)C2)nc1 [Compound 12, Ethyl 2-((3S,4R)-4-(3,4-dichloro-5-methyl-1H-pyrrole-2-carboxamido)-3-methoxy-piperidin-1-yl)pyrimidine-5-carboxylate] | 0.125 (≈ 0.274 µM) | 4.87 ± 0.02 | > 128 | > 10 |  |  |
| COC(=O)c1cnc(N2CC[C@@H](NC(=O)c3[nH]c(C)c(Cl)c3Cl)[C@@H](OC)C2)cn1 [Compound 13, Methyl-5-((3S,4R)-4-(3,4-dichloro-5-methyl-1H-pyrrole-2-carboxamido)-3-methoxypiperidin-1-yl)pyrazine-2-carboxylate] | > 128 | > 10 | > 128 | > 10 |  |  |
| CCOC(=O)c1nnc(N2CC[C@@H](NC(=O)c3[nH]c(C)c(Cl)c3Cl)[C@@H](OC)C2)o1 [Compound 16, Ethyl-5-((3S,4R)-4-(3,4-dichloro-5-methyl-1H-pyrrole-2-carboxamido)-3-methoxypiperidin-1-yl)-1,3,4-oxadiazole-2-carboxylate] | 0.5 (≈ 1.12 µM) | 2.34 | 128 (≈ 287 µM) | > 10 |  |  |
| CO[C@H]1CN(c2ccc(C(F)(F)F)nn2)CC[C@H]1NC(=O)c1[nH]c(C)c(Cl)c1Cl [Compound 19, 3,4-Dichloro-N-((3S,4R)-3-methoxy-1-(6-(trifluoromethyl)pyridazin-3-yl)piperidin-4-yl)-5-methyl-1H-pyrrole-2-carboxamide] | 0.03 (≈ 0.0663 µM) | 0.12 ± 0.047 | 16 (≈ 35.4 µM) | 9.31 ± 0.923 |  |  |
| CO[C@H]1CN(c2ccc(/C(C)=N/O)nn2)CC[C@H]1NC(=O)c1[nH]c(C)c(Cl)c1Cl [Compound 23, 3,4-Dichloro-N-((3S,4R)-1-(6-((E)-1-(hydroxyimino)ethyl)pyridazin-3-yl)-3-methoxypiperidin-4-yl)-5-methyl-1H-pyrrole-2-carboxamide] | ≤ 0.015 | 1.49 ± 0.234 | 1 (≈ 2.27 µM) | 2.56 |  | weak protective effects |
| CO/N=C(\C)c1ccc(N2CC[C@@H](NC(=O)c3[nH]c(C)c(Cl)c3Cl)[C@@H](OC)C2)nn1 [Compound 24, 3,4-Dichloro-N-((3S,4R)-3-methoxy-1-(6-((E)-1-(methoxyimino)ethyl)pyridazin-3-yl)piperidin-4-yl)-5-methyl-1H-pyrrole-2-carboxamide] | 0.03 (≈ 0.0659 µM) | 2.07 ± 0.568 | > 128 | > 10 |  |  |
| CO[C@H]1CN(c2ccc(/C(C)=N/OCC(=O)O)nn2)CC[C@H]1NC(=O)c1[nH]c(C)c(Cl)c1Cl [Compound 25, 2-((((E)-1-(6-((3S,4R)-4-(3,4-Dichloro-5-methyl-1H-pyrrole-2-carboxamido)-3-methoxypiperidin-1-yl)pyridazine-3-yl)ethylidene)amino)oxy)acetic acid] | 0.25 (≈ 0.501 µM) | 0.172 ± 0.056 | > 128 | > 10 |  |  |
| CNC(=O)c1ccc(N2CC[C@@H](NC(=O)c3[nH]c(C)c(Cl)c3Cl)[C@@H](OC)C2)nn1 [Compound 30, 6-((3S,4R)-4-(3,4-Dichloro-5-methyl-1H-pyrrole-2-carboxamido)-3-methoxypiperidin-1-yl)-N-methylpyridazine-3-carboxamide] | 0.125 (≈ 0.283 µM) | 0.696 ± 0.056 | 16 (≈ 36.3 µM) | > 10 |  |  |
| CCNC(=O)c1ccc(N2CC[C@@H](NC(=O)c3[nH]c(C)c(Cl)c3Cl)[C@@H](OC)C2)nn1 [Compound 31, 6-((3S,4R)-4-(3,4-Dichloro-5-methyl-1H-pyrrole-2-carboxamido)-3-methoxypiperidin-1-yl)-N-ethylpyridazine-3-carboxamide] | 0.125 (≈ 0.275 µM) | 0.576 ± 0.045 | > 128 | > 10 |  |  |
| CO[C@H]1CN(c2ccc(C(=O)NCCN)nn2)CC[C@H]1NC(=O)c1[nH]c(C)c(Cl)c1Cl [Compound 32, N-(2-Aminoethyl)-6-((3S,4R)-4-(3,4-dichloro-5-methyl-1H-pyrrole-2-carboxamido)-3-methoxypiperidin-1-yl)pyridazine-3-carboxamide] | 32 (≈ 68 µM) | > 10 | 64 (≈ 136 µM) | > 10 |  |  |
| CO[C@H]1CN(c2ccc(C(=O)N3CCNCC3)nn2)CC[C@H]1NC(=O)c1[nH]c(C)c(Cl)c1Cl [Compound 33, 3,4-Dichloro-N-((3S,4R)-3-methoxy-1-(6-(piperazine-1-carbonyl)pyridazin-3-yl)piperidin-4-yl)-5-methyl-1H-pyrrole-2-carboxamide] | 0.25 (≈ 0.504 µM) | 1.09 ± 0.146 | 32 (≈ 64.5 µM) | > 10 |  |  |
| CO[C@H]1CN(c2ccc(-c3nn[nH]n3)nn2)CC[C@H]1NC(=O)c1[nH]c(C)c(Cl)c1Cl [Compound 36, N-((3S,4R)-1-(6-(2H-Tetrazol-5-yl)pyridazin-3-yl)-3-methoxypiperidin-4-yl)-3,4-dichloro-5-methyl-1H-pyrrole-2-carboxamide] | 0.5 (≈ 1.11 µM) | > 10 | 16 (≈ 35.4 µM) | > 10 |  |  |
| CO[C@@H]1[C@@H](OC(N)=O)[C@@H](O)[C@H](Oc2ccc3c(O)c(NC(=O)c4ccc(O)c(CC=C(C)C)c4)c(=O)oc3c2C)OC1(C)C [novobiocin (1), novobiocin, reference compound] | 0.5 (≈ 0.816 µM) |  | 128 (≈ 209 µM) |  | 0.383 ± 0.12 |  |

Second part, led by results:

| MIC (S. aureus (ATCC29213)) [µg/mL] | IC50 (S. aureus gyrase) [µM] | MIC (E. coli (ATCC25922)) [µg/mL] | IC50 (E. coli gyrase) [µM] | IC50 (S. aureus Topo IV) [µM] | SMILES | protective effect / survival in mouse model of sepsis [1] |
| --- | --- | --- | --- | --- | --- | --- |
| 0.25 (≈ 0.621 µM) | 0.084 ± 0.037 | 16 (≈ 39.8 µM) | 8.21 ± 1.21 |  | CO[C@H]1CN(c2ccc(F)nn2)CC[C@H]1NC(=O)c1[nH]c(C)c(Cl)c1Cl [Compound 17, 3,4-Dichloro-N-((3S,4R)-1-(6-fluoropyridazin-3-yl)-3-methoxypiperidin-4-yl)-5-methyl-1H-pyrrole-2-carboxamide] |  |
| 0.03 (≈ 0.0648 µM) | 0.13 ± 0.017 | 4 (≈ 8.64 µM) | 7.42 ± 1.01 |  | CO[C@H]1CN(c2ccc(Br)nn2)CC[C@H]1NC(=O)c1[nH]c(C)c(Cl)c1Cl [Compound 18, N-((3S,4R)-1-(6-Bromopyridazin-3-yl)-3-methoxypiperidin-4-yl)-3,4-dichloro-5-methyl-1H-pyrrole-2-carboxamide] |  |
| 0.06 (≈ 0.147 µM) | 0.701 ± 0.248 | > 128 | > 10 |  | CO[C@H]1CN(c2ccc(C#N)nn2)CC[C@H]1NC(=O)c1[nH]c(C)c(Cl)c1Cl [Compound 20, 3,4-Dichloro-N-((3S,4R)-1-(6-cyanopyridazin-3-yl)-3-methoxypiperidin-4-yl)-5-methyl-1H-pyrrole-2-carboxamide] |  |
| 0.06 (≈ 0.141 µM) | 0.825 ± 0.303 | > 128 | > 10 |  | CO[C@H]1CN(c2ccc(C(C)=O)nn2)CC[C@H]1NC(=O)c1[nH]c(C)c(Cl)c1Cl [Compound 21, N-((3S,4R)-1-(6-Acetylpyridazin-3-yl)-3-methoxypiperidin-4-yl)-3,4-dichloro-5-methyl-1H-pyrrole-2-carboxamide] |  |
| 0.03 (≈ 0.0724 µM) | 0.094 ± 0.04 | 4 (≈ 9.66 µM) | 5.11 ± 0.545 |  | CO[C@H]1CN(c2ccc(CO)nn2)CC[C@H]1NC(=O)c1[nH]c(C)c(Cl)c1Cl [Compound 27, 3,4-Dichloro-N-((3S,4R)-1-(6-(hydroxymethyl)pyridazin-3-yl)-3-methoxypiperidin-4-yl)-5-methyl-1H-pyrrole-2-carboxamide] |  |
| 32 (≈ 77.4 µM) | > 10 | > 128 | > 10 |  | CO[C@H]1CN(c2ccc(CN)nn2)CC[C@H]1NC(=O)c1[nH]c(C)c(Cl)c1Cl [Compound 34, N-((3S,4R)-1-(6-(Aminomethyl)pyridazin-3-yl)-3-methoxypiperidin-4-yl)-3,4-dichloro-5-methyl-1H-pyrrole-2-carboxamide] |  |
| 32 (≈ 75.1 µM) | > 10 | > 128 | > 10 |  | CO[C@H]1CN(c2ccc(C(=N)N)nn2)CC[C@H]1NC(=O)c1[nH]c(C)c(Cl)c1Cl [Compound 35, N-((3S,4R)-1-(6-Carbamimidoylpyridazin-3-yl)-3-methoxypiperidin-4-yl)-3,4-dichloro-5-methyl-1H-pyrrole-2-carboxamide] |  |
